Test results: patent publication EP1736154A1 (priority 2005, dated 2006)
Starred links: 1 amine or outer side, 2 acyl side, 3 side chain; linkers in the order of their positions; H or OH if unused. Positions of bridges follow the written chain, without caps; N, C: chain ends. Non-standard residues stand in square brackets, D forms with d. Residues, ends and D or L forms follow the SMILES beside them. Adda = CO[C@@H](Cc1ccccc1)[C@@H](C)/C=C(C)/C=C/[C@H](N[*:1])[C@H](C)C(=O)[*:2]; dAsp(3S-Me) = C[C@H](C(=O)[*:3])[C@@H](N[*:1])C(=O)[*:2]; d(γGlu) = O=C(O)[C@@H](CCC(=O)[*:2])N[*:1]; NMeDha = C=C(NC)C(=O)O

Assays:
SMN2 minigene, exon 7 = type: cell-based
tau exon 10 minigene = type: cell-based, human
SMN protein = SMN protein expression in SMA patient fibroblasts (Western blot with anti-SMN antibody)

| SMILES | exon 7 inclusion of SMN2 MG (SMN2 minigene, exon 7) | further results |
| --- | --- | --- |
| CO[C@H]([C@H](O)CC(=O)[C@@H](C)[C@@H](O)CC[C@@H](C)[C@@H]1O[C@]2(CC[C@@H](C)[C@H](CC[C@H](C)C(C)=O)O2)CC[C@@H]1C)[C@H](OC(=O)C[C@@H](O)C1=C(C)C(=O)OC1=O)C(C)C [Tautomycin] |  | inclusion of tra2-beta1 dependent enhancers, SMN2-minigene (SMN2 minigene, exon 7): promotes inclusion of tra2-beta1 dependent enhancers; tra2-betal-dependent splicing enhancers (SMN2 MG splicing pattern) (SMN2 minigene, exon 7): can be manipulated; inclusion of tra2-beta1 dependent enhancers, tau exon 10 minigene (tau exon 10 minigene): promotes inclusion of tra2-beta1 dependent enhancers; SMN Protein formation in human fibroblasts (SMN protein): promotes SMN Protein formation |
| C=C1C(=O)N[C@H](C)C(=O)N[C@@H](CC(C)C)C(=O)N[C@@H](C(=O)O)[C@H](C)C(=O)N[C@@H](CCCNC(=N)N)C(=O)N[C@@H](/C=C/C(C)=C/[C@H](C)[C@H](Cc2ccccc2)OC)[C@H](C)C(=O)N[C@@H](C(=O)O)CCC(=O)N1C [Microcystin ―LR, Microcystin-LR] (R[Adda][d(γGlu)][NMeDha][dA]L[dAsp(3S-Me)]-OH; lactam N-7) | promote the exon 7 inclusion |  |
| CN(N=O)c1cc(O)ccc1O [Dephostatin] | promote the exon 7 inclusion |  |
| COC[C@@H]([C@H](O)[C@H](O)C(=O)NCC[C@H](C)c1nc(/C=C/C[C@@H]2O[C@]3(C[C@@H](O)[C@@H]2C)O[C@H]([C@H](C[C@H](O)[C@H](C)[C@H](O)[C@H](C)/C=C(C)/C(C)=C/C=C/C(C)=C\C#N)OC)[C@H](OP(=O)(O)O)C3(C)C)co1)N(C)C [Calyculin A] | promote the exon 7 inclusion |  |
| C[C@@]12C(=O)OC(=O)[C@]1(C)[C@H]1CC[C@@H]2O1 [Cantharidin] | promote the exon 7 inclusion |  |
